Measured values published in EP0800503B1, “NOVEL TRIENOIC RETINOID COMPOUNDS AND METHODS” (LIGAND PHARMACEUTICALS, INC., priority 1994, dated 1996).
Like-named read-outs stand apart in the source and are kept apart here.

Experiments:
RXRα [1] = biological target: T1, RXRα (Homo sapiens, UniProt P19793); assay: Receptor binding (competition with tritiated retinoids); conditions: from IC50 by Cheng-Prussof equation
T1 sequence (P19793 1-462): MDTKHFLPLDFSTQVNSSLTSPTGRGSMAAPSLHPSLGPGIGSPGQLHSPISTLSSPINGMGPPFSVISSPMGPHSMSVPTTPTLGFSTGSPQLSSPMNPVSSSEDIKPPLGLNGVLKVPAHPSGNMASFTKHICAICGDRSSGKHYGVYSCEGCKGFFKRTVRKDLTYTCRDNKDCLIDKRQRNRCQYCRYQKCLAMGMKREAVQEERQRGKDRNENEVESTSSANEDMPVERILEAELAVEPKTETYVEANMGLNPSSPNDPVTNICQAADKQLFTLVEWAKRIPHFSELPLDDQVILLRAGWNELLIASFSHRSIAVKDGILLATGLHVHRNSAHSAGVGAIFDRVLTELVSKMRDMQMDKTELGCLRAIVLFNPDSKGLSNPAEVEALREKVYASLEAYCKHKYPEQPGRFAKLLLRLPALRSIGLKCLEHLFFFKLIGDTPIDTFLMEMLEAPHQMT

RPMI 8226 cell line [2] = assay: Viability (tetrazolium dye, MTS); type: cell-based; conditions: Homo sapiens, 96 hours, mitochondrial function / viability
RXRγ [3] = biological target: T2, RXRγ (Mus musculus, UniProt P28705); assay: biochemical
T2 sequence (P28705 1-463): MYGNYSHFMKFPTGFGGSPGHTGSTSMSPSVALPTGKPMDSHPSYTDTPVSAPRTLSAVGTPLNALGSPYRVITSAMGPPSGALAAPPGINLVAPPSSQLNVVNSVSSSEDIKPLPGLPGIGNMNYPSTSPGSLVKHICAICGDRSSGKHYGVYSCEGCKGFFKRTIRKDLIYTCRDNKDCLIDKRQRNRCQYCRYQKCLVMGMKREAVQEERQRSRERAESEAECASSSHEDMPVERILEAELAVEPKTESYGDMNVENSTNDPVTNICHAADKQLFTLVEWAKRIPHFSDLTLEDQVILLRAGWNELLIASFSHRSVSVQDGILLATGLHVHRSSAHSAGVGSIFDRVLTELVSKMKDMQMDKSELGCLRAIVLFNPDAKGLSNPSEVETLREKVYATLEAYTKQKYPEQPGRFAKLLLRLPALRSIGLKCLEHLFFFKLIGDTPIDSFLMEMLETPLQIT

AML-193 cell line [4] = assay: Viability (tetrazolium dye, MTS); type: cell-based; conditions: Homo sapiens, 96 hours, mitochondrial function / viability
RXRγ [5] = biological target: T2, RXRγ; assay: Co-transfection assay; type: cell-based; conditions: read-out: RXRγ Pot
TPA induction of ODC = assay: Ornithine decarboxylase (ODC) assay, inhibition of TPA induction of ODC; type: cell-based; conditions: concentration required to inhibit the TPA induction of ODC by 80 percent
RARβ [6] = biological target: T3, RARβ (Homo sapiens, UniProt P10826); assay: Co-transfection assay; type: cell-based; conditions: read-out: RARβ Pot
T3 sequence (P10826 1-448 isoform P10826-2): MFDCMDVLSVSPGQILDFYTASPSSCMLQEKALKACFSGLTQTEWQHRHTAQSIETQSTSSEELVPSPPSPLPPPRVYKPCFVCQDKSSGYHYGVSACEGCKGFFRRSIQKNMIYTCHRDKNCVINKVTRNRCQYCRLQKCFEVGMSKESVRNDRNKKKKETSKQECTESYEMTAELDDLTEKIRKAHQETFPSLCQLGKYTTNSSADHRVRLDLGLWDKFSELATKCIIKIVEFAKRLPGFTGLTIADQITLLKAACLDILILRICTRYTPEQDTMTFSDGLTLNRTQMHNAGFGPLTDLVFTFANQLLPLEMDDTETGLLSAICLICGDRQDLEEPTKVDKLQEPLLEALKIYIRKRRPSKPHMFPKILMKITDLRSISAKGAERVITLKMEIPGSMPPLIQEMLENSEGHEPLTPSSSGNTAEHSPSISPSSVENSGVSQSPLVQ

ME 180 cell line [7] = assay: Incorporation of 3H-thymidine; type: cell-based; conditions: Homo sapiens, 96 hours, radiolabeled thymidine incorporation, read-out: TdR IC50
ME 180 cell line [8] = assay: Viability (tetrazolium dye, MTS); type: cell-based; conditions: Homo sapiens, 96 hours, mitochondrial function / viability
RARβ [9] = biological target: T4, RARβ (Homo sapiens, UniProt P10826); assay: biochemical
T4 sequence (P10826 1-455): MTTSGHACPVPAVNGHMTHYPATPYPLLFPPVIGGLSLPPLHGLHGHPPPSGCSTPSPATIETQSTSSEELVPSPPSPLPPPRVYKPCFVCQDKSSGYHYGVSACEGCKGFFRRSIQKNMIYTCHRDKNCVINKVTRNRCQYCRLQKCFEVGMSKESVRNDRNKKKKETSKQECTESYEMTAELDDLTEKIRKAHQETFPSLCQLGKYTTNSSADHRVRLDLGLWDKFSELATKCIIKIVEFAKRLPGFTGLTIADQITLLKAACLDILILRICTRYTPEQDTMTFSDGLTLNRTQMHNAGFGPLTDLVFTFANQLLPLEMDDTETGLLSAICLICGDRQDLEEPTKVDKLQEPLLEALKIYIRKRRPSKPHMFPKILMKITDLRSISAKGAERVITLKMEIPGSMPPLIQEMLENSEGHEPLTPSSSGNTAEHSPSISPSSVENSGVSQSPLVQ

RARα [10] = biological target: T5, RARα (Homo sapiens, UniProt P10276); assay: Co-transfection assay; type: cell-based; conditions: read-out: RARα Pot
T5 sequence (P10276 1-462): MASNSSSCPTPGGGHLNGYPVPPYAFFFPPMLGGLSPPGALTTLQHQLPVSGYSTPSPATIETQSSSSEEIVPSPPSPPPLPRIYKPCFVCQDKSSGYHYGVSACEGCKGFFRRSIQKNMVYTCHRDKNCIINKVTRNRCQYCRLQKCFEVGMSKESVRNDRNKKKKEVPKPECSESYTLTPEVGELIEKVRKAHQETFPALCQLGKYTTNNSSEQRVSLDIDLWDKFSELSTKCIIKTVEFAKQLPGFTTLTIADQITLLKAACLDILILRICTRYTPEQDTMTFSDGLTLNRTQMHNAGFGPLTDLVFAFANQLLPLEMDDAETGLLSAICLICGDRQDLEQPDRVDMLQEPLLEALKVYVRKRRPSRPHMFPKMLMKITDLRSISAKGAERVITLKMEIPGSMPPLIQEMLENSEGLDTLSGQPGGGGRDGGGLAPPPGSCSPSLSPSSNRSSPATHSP

RPMI 8226 cell line [11] = assay: Incorporation of 3H-thymidine; type: cell-based; conditions: Homo sapiens, 96 hours, radiolabeled thymidine incorporation, read-out: TdR IC50
RARα [12] = biological target: T5, RARα; assay: Receptor binding (competition with tritiated retinoids); conditions: from IC50 by Cheng-Prussof equation
AML-193 cell line [13] = assay: Incorporation of 3H-thymidine; conditions: Homo sapiens, 96 h, read-out: TdR IC50 (nM)
RXRα [14] = biological target: T1, RXRα; assay: Co-transfection assay; type: cell-based; conditions: read-out: RXRα Pot

Structure (SMILES) | Kd (RXRα [1]) [nM] | IC50 (RPMI 8226 cell line [2]) [nM] | Kd (RXRγ [3]) [nM] | IC50 (AML-193 cell line [4]) [nM] | EC50 (RXRγ [5]) [nM] | IC80 (TPA induction of ODC) [nM] | EC50 (RARβ [6]) [nM] | IC50 (ME 180 cell line [7]) [nM] | IC50 (ME 180 cell line [8]) [nM] | Kd (RARβ [9]) [nM] | EC50 (RARα [10]; CV-1 cells, pRShRARα, D-MTV-LUC reporter, 40 hours, potency = EC50) [nM] | IC50 (RPMI 8226 cell line [11]) [nM] | Kd (RARα [12]) [nM] | IC50 (AML-193 cell line [13]) [nM] | EC50 (RXRα [14]) [nM] | EC50 (RARα [10]) [nM]
CC(/C=C/C=C(\C)c1cc(C(C)(C)C)cc(C(C)(C)C)c1)=C\C(=O)O [Compound 9, (2E, 4E, 6E)-7-(3,5-Di-t-butylphenyl)-3-methylocta-2,4,6-trienoic acid] | 270 | 253 | 496 | 1000 | > 10000 | 0.93 | 1 | 0.1 | 1.3 | 2 | 4 | 0.3 | 1 | 0.1 | > 10000 | 
C/C(=C/C=C/C(C)=C/C(=O)O)c1cc(C(C)(C)C)cc(C(C)(C)C)c1 [Compound 10, (2E, 4E, 6Z)-7-(3,5-di-t-butylphenyl)-3-methylocta-2,4,6-trienoic acid] | 4 | 570 | 9 | 1000 | 56 | 6.62 | 23 | 62 | 370 | 75 |  | 60 | 59 | 0.01 | 127 | 59
C/C(=C\c1ccc(C(=O)O)cc1)c1ccc2c(c1)C(C)(C)CCC2(C)C [TTNPB, (E)-4-[2-(5,6,7,8-tetrahydro-5,5,8,8-tetramethyl-2-napthalenyl)-1-propenyl]benzoic acid, reference compound] |  | 10 |  | 1000 |  | 0.09 |  | 0.4 | 187 |  |  | 0.2 |  | 0.1 |  | 
